pIC50: −log10 of the molar value. Converted amounts (≈) assume the structure as drawn.
Assays:
[1] = tested on: Candida albicans; assay: Antifungal activity against Candida albicans ATCC 10231 at 1 mg/ml after 24 hr by agar cup diffusion method; format: functional; conditions: ATCC 10231, 24 h, read-out: DIZ
[2] = target: Cyclin-dependent kinase 5/CDK5 activator 1 (Homo sapiens, UniProt Q00535); assay: Inhibition of CDK5/p25 (unknown origin); format: protein-complex assay
[3] = Inhibition of Marthasterias glacialis CDK1/cyclin B using histone H1 as substrate and [gamma32P]ATP after 10 min by scintillation counting
[4] = target: Glycogen synthase kinase-3 (Homo sapiens, UniProt P49840+P49841); assay: Inhibition of GSK3alpha/beta (unknown origin); format: protein assay
[5] = tested on: Staphylococcus aureus; assay: Antibacterial activity against Staphylococcus aureus ATCC 6538 at 1 mg/ml after 24 hr by agar cup diffusion method; format: functional; conditions: ATCC 6538, 24 h, read-out: DIZ
[6] = tested on: Escherichia coli; assay: Antibacterial activity against Escherichia coli NCTC 10418 at 1 mg/ml after 24 hr by agar cup diffusion method; format: functional; conditions: NCTC 10418, 24 h, read-out: DIZ
[7] = tested on: Staphylococcus aureus; assay: Antibacterial activity against Staphylococcus aureus ATCC 6538 after 48 hr by two fold serial dilution method; format: functional; conditions: ATCC 6538, 48 h
[8] = tested on: Staphylococcus aureus; assay: Antibacterial activity against Staphylococcus aureus ATCC 6538 incubated for 48 hr followed by subculturing measured after 18 hr; format: functional
[9] = tested on: Candida albicans; assay: Antifungal activity against Candida albicans ATCC 10231 incubated for 48 hr followed by subculturing measured after 18 hr; format: functional
[10] = tested on: Candida albicans; assay: Antifungal activity against Candida albicans ATCC 10231 after 48 hr by two-fold serial dilution method; format: functional; conditions: ATCC 10231, 48 h
[11] = tested on: Pseudomonas aeruginosa; assay: Antibacterial activity against Pseudomonas aeruginosa ATCC 9027 at 1 mg/ml after 24 hr by agar cup diffusion method; format: functional; conditions: ATCC 9027, 24 h, read-out: DIZ
[12] = tested on: Escherichia coli; assay: Antibacterial activity against Escherichia coli NCTC 10418 incubated for 48 hr followed by subculturing measured after 18 hr; format: functional
[13] = tested on: Escherichia coli; assay: Antibacterial activity against Escherichia coli NCTC 10418 after 48 hr by two-fold serial dilution method; format: functional; conditions: NCTC 10418, 48 h
[14] = tested on: Pseudomonas aeruginosa; assay: Antibacterial activity against Pseudomonas aeruginosa ATCC 9027 incubated for 48 hr followed by subculturing measured after 18 hr; format: functional
[15] = tested on: Pseudomonas aeruginosa; assay: Antibacterial activity against Pseudomonas aeruginosa ATCC 9027 after 48 hr by two-fold serial dilution method; format: functional; conditions: ATCC 9027, 48 h

Chain of Cyclin-dependent kinase 5/CDK5 activator 1 (Q00535 whole entry): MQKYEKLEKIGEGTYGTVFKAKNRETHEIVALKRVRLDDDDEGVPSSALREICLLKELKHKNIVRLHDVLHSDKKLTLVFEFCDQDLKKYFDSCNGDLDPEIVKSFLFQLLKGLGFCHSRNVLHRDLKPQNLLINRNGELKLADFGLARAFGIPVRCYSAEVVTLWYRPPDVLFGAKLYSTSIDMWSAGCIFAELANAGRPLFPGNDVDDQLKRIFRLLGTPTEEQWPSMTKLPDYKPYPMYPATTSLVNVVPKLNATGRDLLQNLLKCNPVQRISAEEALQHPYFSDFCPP
Chain of Cyclin-dependent kinase 5/CDK5 activator 1 (Q15078 whole entry, further chain): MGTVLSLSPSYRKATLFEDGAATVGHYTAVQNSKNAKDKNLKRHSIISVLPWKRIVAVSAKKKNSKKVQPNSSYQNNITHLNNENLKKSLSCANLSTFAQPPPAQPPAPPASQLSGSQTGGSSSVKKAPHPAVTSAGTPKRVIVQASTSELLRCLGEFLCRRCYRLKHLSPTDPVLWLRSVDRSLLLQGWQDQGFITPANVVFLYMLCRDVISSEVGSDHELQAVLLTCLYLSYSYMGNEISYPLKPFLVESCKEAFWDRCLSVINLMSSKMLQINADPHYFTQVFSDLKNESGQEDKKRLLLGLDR

| Structure (SMILES) | zone of inhibition at 1000 µg/mL [1] | pIC50 [2] | pIC50 [3] | IC50 [4] | zone of inhibition at 1000 µg/mL [5] | zone of inhibition at 1000 µg/mL [6] | MIC [7] | MBC [8] | MFC [9] | MIC [10] | zone of inhibition at 1000 µg/mL [11] | MBC [12] | MIC [13] | MBC [14] | MIC [15] |
| --- | --- | --- | --- | --- | --- | --- | --- | --- | --- | --- | --- | --- | --- | --- | --- |
| COc1ccc(-c2nn(-c3ccccc3)cc2C2OC(=O)C(O)=C2Br)cc1 (centres undefined) | 15 mm | < 5.00 | < 5.00 | > 10 µM |  |  |  |  |  |  |  |  |  |  |  |
| O=C1OC(c2cn(-c3ccccc3)nc2-c2ccc(Br)cc2)C(Br)=C1O (centres undefined) | 16 mm | < 5.00 | < 5.00 | > 10 µM | 18 mm | 17 mm | 125 µg/mL (≈ 263 µM) | 250 µg/mL (≈ 525 µM) |  |  |  |  |  |  |  |
| Cc1nn(-c2ccccc2)c(C)c1C1OC(=O)C(O)=C1Cl (centres undefined) | 16.5 mm | < 5.00 | < 5.00 | > 10 µM |  |  |  |  |  |  |  |  |  |  |  |
| O=C1OC(c2ccccc2)C(I)=C1O (centres undefined) | 20.5 mm | < 5.00 | < 5.00 | > 10 µM |  |  |  |  | 125 µg/mL (≈ 414 µM) | 62.5 µg/mL (≈ 207 µM) |  |  |  |  |  |
| O=C1OC(c2ccc(Cl)cc2)C(I)=C1O (centres undefined) | 17 mm | < 5.00 | < 5.00 | > 10 µM |  |  |  |  |  |  |  |  |  |  |  |
| COc1ccc(C2OC(=O)C(O)=C2I)cc1OC (centres undefined) | 17.5 mm | < 5.00 | < 5.00 | > 10 µM |  |  |  |  |  |  |  |  |  |  |  |
| Cc1nn(-c2ccccc2)c(C)c1C1OC(=O)C(O)=C1I (centres undefined) | 17.5 mm | < 5.00 | < 5.00 | > 10 µM | 19 mm |  | 31.2 µg/mL (≈ 78.9 µM) | 62.5 µg/mL (≈ 158 µM) |  |  |  |  |  |  |  |
| O=c1[nH]c2ccccc2nc1/C(Cl)=C/c1ccc(Cl)cc1 | 17 mm | < 5.00 | < 5.00 | > 10 µM | 25 mm |  | 15.6 µg/mL (≈ 49.2 µM) | 125 µg/mL (≈ 394 µM) |  |  | 15 mm |  |  |  |  |
| O=c1[nH]c2ccccc2nc1/C(I)=C/c1ccccc1 | 16 mm | < 5.00 | < 5.00 | > 10 µM |  |  |  |  |  |  |  |  |  |  |  |
| O=c1[nH]c2ccccc2nc1/C(I)=C/c1ccc(Cl)cc1 |  | < 5.00 | < 5.00 | > 10 µM |  | 15 mm |  |  |  |  | 16.5 mm |  |  |  |  |
| Cc1nn(-c2ccccc2)c(C)c1/C=C(\I)c1nc2ccccc2[nH]c1=O |  | < 5.00 | < 5.00 | > 10 µM |  | 20 mm |  |  |  |  | 17.5 mm | 250 µg/mL (≈ 534 µM) | 62.5 µg/mL (≈ 133 µM) |  |  |
| O=C(O)/C(Br)=C/c1ccc(Cl)cc1 | 15 mm | < 5.00 | < 5.00 | > 10 µM | 30 mm | 18 mm | 125 µg/mL (≈ 478 µM) | 500 µg/mL (≈ 1910 µM) |  |  | 18 mm | 500 µg/mL (≈ 1910 µM) | 125 µg/mL (≈ 478 µM) | 62.5 µg/mL (≈ 239 µM) | 31.2 µg/mL (≈ 120 µM) |
| Cc1nn(-c2ccccc2)c(C)c1/C=C(\Br)C(=O)O |  | < 5.00 | < 5.00 | > 10 µM |  | 19 mm |  |  |  |  | 20 mm | 125 µg/mL (≈ 389 µM) | 31.2 µg/mL (≈ 97.3 µM) | 62.5 µg/mL (≈ 195 µM) | 31.2 µg/mL (≈ 97.3 µM) |
| O=C(O)/C(Br)=C/c1cn(-c2ccccc2)nc1-c1ccc(Br)cc1 | 15 mm | < 5.00 | < 5.00 | > 10 µM | 33 mm | 17 mm | 31.2 µg/mL (≈ 69.7 µM) | 62.5 µg/mL (≈ 139 µM) |  |  | 18 mm |  |  | 500 µg/mL (≈ 1120 µM) | 250 µg/mL (≈ 558 µM) |
| O=C(O)C(=O)/C=C/c1cn(-c2ccccc2)nc1-c1ccccc1 | 21 mm | < 5.00 | < 5.00 | > 10 µM |  | 19 mm |  |  | 125 µg/mL (≈ 393 µM) | 31.2 µg/mL (≈ 98.2 µM) | 12 mm | 125 µg/mL (≈ 393 µM) | 31.2 µg/mL (≈ 98.2 µM) |  |  |
| COc1ccc(-c2nn(-c3ccccc3)cc2/C=C/C(=O)C(=O)O)cc1 | 20 mm | < 5.00 | < 5.00 | > 10 µM | 19 mm | 17 mm | 125 µg/mL (≈ 359 µM) | > 500 µg/mL | 125 µg/mL (≈ 359 µM) | 31.2 µg/mL (≈ 89.7 µM) | 13 mm |  |  |  |  |
| O=C(O)C(=O)/C=C/c1cn(-c2ccccc2)nc1-c1ccc(Br)cc1 | 21 mm | < 5.00 | < 5.00 | > 10 µM |  | 19 mm |  |  | 31.2 µg/mL (≈ 78.7 µM) | 7.81 µg/mL (≈ 19.7 µM) | 13 mm | > 500 µg/mL | 62.5 µg/mL (≈ 157 µM) |  |  |
| O=C1OC(c2ccccc2)C(Br)=C1O (centres undefined) | 20.5 mm | < 5.00 | < 5.00 | > 10 µM | 23 mm | 21 mm | 62.5 µg/mL (≈ 245 µM) | > 500 µg/mL | 62.5 µg/mL (≈ 245 µM) | 31.2 µg/mL (≈ 123 µM) | 13.5 mm | 250 µg/mL (≈ 980 µM) | 62.5 µg/mL (≈ 245 µM) |  |  |
| O=C1OC(c2ccc(Cl)cc2)C(Br)=C1O (centres undefined) | 21 mm | < 5.00 | < 5.00 | > 10 µM | 20 mm | 20 mm | 62.5 µg/mL (≈ 216 µM) | 150 µg/mL (≈ 518 µM) | 62.5 µg/mL (≈ 216 µM) | 31.2 µg/mL (≈ 108 µM) |  | 125 µg/mL (≈ 432 µM) | 31.2 µg/mL (≈ 108 µM) |  |  |
| Cc1nn(-c2ccccc2)c(C)c1C1OC(=O)C(O)=C1Br (centres undefined) | 17 mm | < 5.00 | < 5.00 | > 10 µM | 19 mm | 17 mm | 62.5 µg/mL (≈ 179 µM) | 125 µg/mL (≈ 358 µM) |  |  |  |  |  |  |  |
| O=C1OC(c2cn(-c3ccccc3)nc2-c2ccccc2)C(Br)=C1O (centres undefined) | 16.5 mm | < 5.00 | < 5.00 | > 10 µM |  | 19 mm |  |  |  |  | 19 mm | 250 µg/mL (≈ 629 µM) | 62.5 µg/mL (≈ 157 µM) | 125 µg/mL (≈ 315 µM) | 62.5 µg/mL (≈ 157 µM) |
| CC1(C)S[C@@H]2[C@H](NC(=O)[C@H](N)c3ccccc3)C(=O)N2[C@H]1C(=O)O [AMPICILLIN] |  |  |  |  | 40 mm | 26 mm | 3.9 µg/mL (≈ 11.2 µM) | 15.6 µg/mL (≈ 44.7 µM) |  |  |  | 31.2 µg/mL (≈ 89.4 µM) | 7.81 µg/mL (≈ 22.4 µM) | 250 µg/mL (≈ 715 µM) | 125 µg/mL (≈ 358 µM) |
| Clc1ccccc1C(c1ccccc1)(c1ccccc1)n1ccnc1 [CLOTRIMAZOLE] | 28 mm |  |  |  |  |  |  |  | 15.6 µg/mL (≈ 45.3 µM) | 7.81 µg/mL (≈ 22.6 µM) |  |  |  |  |  |
